Legend:
Format in all cases: in vivo
[1] = tested on: CHEAL, Chenopodium album L. (common lambsquarters); assay: Greenhouse postemergence herbicidal effect (visual injury, 20-22 d)
From the text: (§1) Greenhouse Trial Methodology—Evaluation of Postemergence Herbicidal Effect
(§2) Seeds of the desired test plant species were planted in a 90:10% v/v (volume/volume) mixture of PRO-MIX® BX (Premier Tech Horticulture, Quakertown, Pa., USA) and PROFILE®GREENS GRADE™ (Profile Products LLC, Buffalo Grove, Ill., USA) planting mixture, which typically has a pH of 5.2 to 6.2 and an organic matter content of at least 50 percent, in plastic pots with a surface area of 103.2 square centimeters (cm^2). In some aspects, to help ensure good germination and healthy plants, a fungicide treatment and/or other chemical or physical treatment was applied. The plants were grown for 7-36 days (d) in a greenhouse with an approximate 14-hour (h) photoperiod which was maintained at about 23° C. during the day and 22° C. during the night. Nutrients and water were added on a regular basis and supplemental lighting was provided with overhead metal halide 1000-Watt lamps as necessary. The plants were employed for testing when they reached the second or third true leaf stage.
(§3) Emulsifiable concentrates of each of each pyridine carboxylate herbicide (Compound A or Compound B) were prepared at 100 grams acid equivalent per liter (g ae/L). The emulsifiable concentrates also included a safener, cloquintocet-mexyl, at 120 grams active ingredient per liter (g ai/L), unless otherwise noted below. An aliquot of each emulsifiable concentrate was placed in a 25 mL glass vial and diluted with an aqueous mixture of 1.25% (v/v) ACTIROB® B esterified rapeseed oil (Bayer Crop Science, Research Triangle Park, N.C., USA) or MSO® Concentrate with LECI-TECH® methylated soybean oil (Loveland Products, Loveland, Colo., USA) to obtain concentrated stock solutions at the highest application rate for each herbicide, based upon a 12 milliliter (mL) application volume at a rate of 187 liters per hectare (L/ha). The concentrated stock solutions were further diluted with an aqueous mixture of 1.25% v/v ACTIROB® B or MSO® Concentrate with LECI-TECH® to obtain stock solutions at reduced application rates for each herbicide. Spray solutions of the herbicide combinations (Compound A or Compound B plus PS-II herbicide and optional HPPD herbicide) were prepared by adding weighed amounts or aliquots of the PS-II herbicide and optional HPPD herbicide to the stock solutions of Compound A or Compound B to form 12-mL spray solutions in two- or three-way combinations.
(§4) The spray solutions were applied to the plant material with an overhead Mandel track sprayer equipped with 8002E nozzles calibrated to deliver 187 L/ha over an application area of 0.503 square meters (m^2) at a spray height of 18 inches ([…] centimeters (cm)) above the average plant canopy. Control plants were sprayed in the same manner with the solvent blank. All pyridine carboxylate herbicide (component a) application rates are given as “g ae/ha” and all PS II inhibitor herbicide (component b) and HPPD inhibitor herbicide (component c) application rates are given as “g ai/ha.”
(§5) The treated plants and control plants were placed in a greenhouse as described above and watered by sub-irrigation to prevent wash-off of the test compounds. After 20-22 d, the condition of the test plants as compared with that of the control plants was determined visually and scored on a scale of 0 to 100 percent where 0 corresponds to no injury and 100 corresponds to complete kill.

[2] = tested on: SASKR, Salsola kali (Russian thistle); assay: as above
From the text: as §1, §2, §3, §4, §5

[3] = tested on: SINAR, Sinapis arvensis (wild mustard); assay: as above
From the text: as §1, §2, §3, §4, §5

[4] = tested on: POLCO, Polygonum convolvulus (wild buckwheat); assay: as above
From the text: as §1, §2, §3, §4, §5

[5] = tested on: BRSNN, Brassica napus (spring rape); assay: as above
From the text: as §1, §2, §3, §4, §5

[6] = tested on: KCHSC, Kochia scoparia (kochia); assay: as above
From the text: as §1, §2, §3, §4, §5

[7] = tested on: VIOTR, Viola tricolor (wild pansy); assay: as above
From the text: as §1, §2, §3, §4, §5

[8] = tested on: ALOMY, Alopecurus myosuroides (blackgrass); assay: as above; conditions: 450 g ai/ha alone
From the text: as §1, §2, §3, §4, §5

[9] = tested on: AVEFA, Avena fatua (wild oat); assay: as above; conditions: 450 g ai/ha alone
From the text: as §1, §2, §3, §4, §5

[10] = tested on: HORVS, Hordeum vulgare (spring barley); assay: Greenhouse postemergence phytotoxicity on crop (visual injury, 20-22 d)
From the text: as §1, §2, §3, §4, §5

[11] = tested on: TRZAS, Triticum aestivum (spring wheat); assay: as above
From the text: as §1, §2, §3, §4, §5

[12] = tested on: CIRAR, Cirsium arvense (Canada thistle); assay: Greenhouse postemergence herbicidal effect (visual injury, 20-22 d)
From the text: as §1, §2, §3, §4, §5

[13] = tested on: BRSNW, Brassica napus (winter rape); assay: as above; conditions: 900 g ai/ha alone
From the text: as §1, §2, §3, §4, §5

[14] = tested on: AMARE, Amaranthus retroflexus (pigweed); assay: as above; conditions: 900 g ai/ha alone
From the text: as §1, §2, §3, §4, §5

[15] = tested on: MATCH, Matricaria chamomilla (wild chamomile); assay: as above; conditions: 900 g ai/ha alone
From the text: as §1, §2, §3, §4, §5

[16] = tested on: EPHHL, Euphorbia heterophylla (poinsettia); assay: as above
From the text: as §1, §2, §3, §4, §5

[17] = tested on: STEME, Stellaria media (chickweed); assay: as above
From the text: as §1, §2, §3, §4, §5

[18] = tested on: ABUTH, Abutilon theophrasti (velvetleaf); assay: as above
From the text: as §1, §2, §3, §4, §5

[19] = tested on: SETFA, Setaria faberi (giant foxtail); assay: as above
From the text: as §1, §2, §3, §4, §5

With `CC(C)c1nn(C(=O)NC(C)(C)C)c(=O)n1N` [Amicarbazone, 4-amino-N-tert-butyl-4,5-dihydro-3-isopropyl-5-oxo-1H-1,2,4-triazole-1-carboxamide] the “visual injury Obs” value ([1]; 175 g ai/ha alone) was 38%, the “visual injury Obs” value ([2]; 175 g ai/ha alone) was 0% and the “visual injury Obs” value ([3]; 175 g ai/ha alone) was 25%. For the same molecule, the pest or weed control at 175 g/ha ([4]; Fallopia convolvulus, post-emergence, 175 g ai/ha alone, read-out: visual injury Obs) was 10%, the “visual injury Obs” value ([5]; 175 g ai/ha alone) was 38% and the “visual injury Obs” value ([6]; 175 g ai/ha alone) was 25%.
In the case of `CCNc1nc(Cl)nc(NC(C)C)n1` [Atrazine, 6-chloro-N^2-ethyl-N^4-isopropyl-1,3,5-triazine-2,4-diamine, reference compound], the “visual injury Obs” value ([7]; 450 g ai/ha alone) is reported as 20%, the “visual injury Obs” value [8] is reported as 25% and the “visual injury Obs” value ([5]; 450 g ai/ha alone) is reported as 28%. For the same molecule, the “visual injury Obs” value [9] was 13%.
`CC(C)N1C(=O)c2ccccc2NS1(=O)=O` [Bentazone, 3-isopropyl-1H-2,1,3-benzothiadiazin-4(3H)-one 2,2-dioxide] was tested, and the pest or weed control at 51.5 g/ha ([4]; Fallopia convolvulus, post-emergence, 51.5 g ai/ha alone, read-out: visual injury Obs) was 20%, the “visual injury Obs” value ([5]; 51.5 g ai/ha alone) was 30% and the “visual injury Obs” value ([10]; 51.5 g ai/ha alone) was 0%. For the same molecule, the “visual injury Obs” value ([11]; 51.5 g ai/ha alone) was 0%.
For `CCC(C)n1c(=O)[nH]c(C)c(Br)c1=O` (stereo not drawn) [Bromacil, 5-bromo-3-sec-butyl-6-methyluracil], the “visual injury Obs” value ([12]; 900 g ai/ha alone) was 18%, the “visual injury Obs” value ([1]; 900 g ai/ha alone) was 53% and the “visual injury Obs” value [13] was 5%. The “visual injury Obs” value ([2]; 900 g ai/ha alone) was 25%, the “visual injury Obs” value [14] was 20% and the “visual injury Obs” value [15] was 5%. For the same molecule, the “visual injury Obs” value ([3]; 900 g ai/ha alone) was 35%, the pest or weed control at 900 g/ha ([4]; Fallopia convolvulus, post-emergence, read-out: visual injury Obs) was 10% and the “visual injury Obs” value ([6]; 900 g ai/ha alone) was 91%. For the same molecule, the “visual injury Obs” value ([10]; 900 g ai/ha alone) was 10% and the “visual injury Obs” value ([11]; 900 g ai/ha alone) was 0%.
For `C#CCOC(=O)c1nc(-c2ccc3cc[nH]c3c2F)c(F)c(N)c1Cl` [Compound B, propargyl 4-amino-3-chloro-5-fluoro-6-(7-fluoro-1H-indol-6-yl)pyridine-2-carboxylate], the visual injury ([16]; 7.5 g ae/ha alone) was 83%, the visual injury ([16]; 10 g ae/ha alone) was 99% and the “% visual injury, Obs” value ([16]; EPHHL, Compound B 10 g/ha) was 99%. The visual injury ([12]; 7.5 g ae/ha alone) was 45%, the visual injury ([12]; 10 g ae/ha alone) was 45% and the “% visual injury, Obs” value ([12]; CIRAR, Compound B 10 g/ha) was 45%. For the same molecule, the visual injury ([7]; 7.5 g ae/ha alone) was 10%, the visual injury ([7]; 10 g ae/ha alone) was 40% and the “% visual injury, Obs” value ([7]; VIOTR, Compound B 10 g/ha) was 40%. For the same molecule, the visual injury ([1]; 7.5 g ae/ha alone) was 85%, the visual injury ([1]; 10 g ae/ha alone) was 90% and the “% visual injury, Obs” value ([1]; CHEAL, Compound B 10 g/ha) was 90%. For the same molecule, the visual injury ([4]; 7.5 g ae/ha alone) was 73%, the visual injury ([4]; 10 g ae/ha alone) was 80% and the “% visual injury, Obs” value ([4]; POLCO, Compound B 10 g/ha) was 80%. The visual injury ([17]; 7.5 g ae/ha alone) was 100%, the visual injury ([17]; 10 g ae/ha alone) was 93% and the “% visual injury, Obs” value ([17]; STEME, Compound B 10 g/ha) was 93%. For the same molecule, the visual injury ([5]; 7.5 g ae/ha alone) was 68%, the visual injury ([5]; 10 g ae/ha alone) was 85% and the visual injury ([18]; 7.5 g ae/ha alone) was 68%. The visual injury ([18]; 10 g ae/ha alone) was 68%, the “% visual injury, Obs” value ([18]; ABUTH, Compound B 10 g/ha) was 68% and the visual injury ([19]; 7.5 g ae/ha alone) was 70%. The visual injury ([19]; 10 g ae/ha alone) was 55%, the “% visual injury, Obs” value ([19]; SETFA, Compound B 10 g/ha) was 55% and the visual injury ([6]; 7.5 g ae/ha alone) was 68%. For the same molecule, the visual injury ([6]; 10 g ae/ha alone) was 80% and the “% visual injury, Obs” value ([6]; KCHSC, Compound B 10 g/ha) was 80%.
